The results in this text go back to PubChem BioAssay AID1996.

In brackets after ≈: the same amount, converted by molar mass. Bounds are passed on as bounds.

For the series the following is noted: buffer; pH 7.4; 200.0 µM.
As to `O=C(Nc1ncc(Cc2cccc([N+](=O)[O-])c2)s1)c1ccco1`, the kinetic solubility (usually the concentration staying in solution when a stock, usually in DMSO, is diluted into the medium) was 0.7 µg/mL (≈ 2.13 µM).
Under `O=C(CSc1ccccc1)NC1CCCCCC1` stands over 39.5 µg/mL.
With `O=C(/C=C/c1ccccc1[N+](=O)[O-])OC1CCCCC1=O` (stereo not given), the kinetic solubility is 4.5 µg/mL (≈ 15.6 µM).
On to `CCc1cccc(C)c1NC(=O)CCNC(=O)c1cccc(C)c1`, for which the solubility (kinetic) was over 48.7 µg/mL.
Under `COc1ccc(C(=O)OCC(=O)NC2CCCC2)cc1OC` stands over 46.1 µg/mL.
Under `CC(C)=CCN1CCN(Cc2ccc(C)s2)CC1CCO` (stereo not given) stands 36.4 µg/mL (≈ 118 µM).
As to `COc1ccc(COc2cccc3ccc(C)nc23)cc1F`, the kinetic solubility is 5.2 µg/mL (≈ 17.5 µM). This solubility kinetic lies about 7-fold lower than the previous one.
In the case of `CCC(C)n1c(O)c(C=NC(C)c2ccccc2)c(=O)[nH]c1=S` (stereo not given) it was 4.3 µg/mL (≈ 13 µM).
In the case of `Cc1cc2c(c(=O)o1)C(CCC1CCCCC1)C(C#N)=C(N)O2` (stereo not given) it was 8 µg/mL (≈ 25.4 µM); in that of `COc1ccccc1N1C(=O)S/C(=C\c2ccc(C)s2)C1=O`, under 0.7 µg/mL.
With `CC1CCCN(Cc2nc(Cc3ccccc3Cl)no2)C1` (stereo not given), the solubility (kinetic) was 27 µg/mL (≈ 88.3 µM).
Under `O=[N+]([O-])c1ccccc1CNC1CCCc2ccccc21` (stereo not given) stands 20.8 µg/mL (≈ 73.7 µM).
In the case of `Cl.O=C(CN1CCCC1)Nc1ccc2c(c1)CCC2` it was 41.3 µg/mL; in that of `Cc1cc(=O)[nH]c(Nc2cccc(Br)c2)n1`, over 42 µg/mL.
Under `S=C(NCc1ccccc1)Nc1ccc2ccccc2c1` stands 0.9 µg/mL (≈ 3.08 µM); under `Cc1c(C=O)c2ccccn2c1C(=O)c1ccc(F)cc1`, 6.5 µg/mL (≈ 23.1 µM).
As to `COc1ccc(CCC(=O)NCCc2ccc(Cl)cc2)cc1`, the solubility (kinetic) turned out to be 3.7 µg/mL (≈ 11.6 µM). Against the preceding compound, the solubility kinetic is about 1.8-fold lower.
In the case of `O=c1c(NCCc2ccc(Cl)cc2)c(-c2ccccc2)c1=O` it was 2.6 µg/mL (≈ 8.34 µM); in that of `CCC(C)NC(=O)Cc1c(OC)ccc2cc(Br)ccc12` (stereo not given), under 0.8 µg/mL.
The compound `Nc1nonc1C(=O)N1CCCCC1` yielded a solubility (kinetic) of 28.2 µg/mL (≈ 144 µM).
For `CCC(C)c1ccc(S(=O)(=O)N2CCN3CCCC3C2)cc1` (stereo not given), the solubility (kinetic) came to 34.1 µg/mL (≈ 106 µM).
For the compound `CCOC(=O)N1CCC(NC(=O)c2cccs2)CC1`, the kinetic solubility turned out to be 37.8 µg/mL (≈ 134 µM).
In the case of `CN1/C(=C/C(=O)C2CC2)C(C)(C)c2ccccc21` it was 8.3 µg/mL (≈ 34.4 µM).
Under `COc1ccc(Nc2oc(-c3ccccc3)nc2C#N)cc1` stands 0.5 µg/mL (≈ 1.72 µM); under `O=C1CC(=O)N(c2cccc(C(F)(F)F)c2)C(=O)N1`, over 40.8 µg/mL; under `Cc1cc(NC(=O)CN2CCN(C)CC2)no1`, 22.4 µg/mL (≈ 94 µM).
In the case of `CN(c1ccccc1)c1ncccn1` it was 14.2 µg/mL (≈ 76.7 µM); in that of `Cc1ccc2c(CN(C)Cc3ccc(Cl)cc3)cc(=O)oc2c1`, 1.9 µg/mL (≈ 5.8 µM).
In turn, `O=C(CSc1ccccn1)Nc1cccc([N+](=O)[O-])c1` came in with a solubility (kinetic) of 38 µg/mL (≈ 131 µM). Compared with the last compound, the solubility kinetic is about 20-fold higher.
For the compound `Cc1ccccc1NC(=O)NCC1CCN(C(=O)OC(C)(C)C)CC1`, the solubility (kinetic) was over 52.1 µg/mL.
Compound `Cc1cccc(C(=O)NC(=S)NCc2ccccc2)c1` came in with a kinetic solubility of 2.4 µg/mL (≈ 8.44 µM).
In the case of `Cc1ccc(C(=O)OCC(=O)NCCc2ccccc2)cc1C` it was 11.3 µg/mL (≈ 36.3 µM).
In the case of `Cc1ccc2nc(NCC(N)=O)nc(-c3ccccc3)c2c1` it was 1.4 µg/mL (≈ 4.79 µM); in that of `O=C(Nc1ccc2c(c1)CCC2)c1cnc(Cl)c(Cl)c1`, under 0.3 µg/mL.
In the case of `CCCNC(=O)N1CCC(Cc2ccccc2)CC1` it was over 39.1 µg/mL.
Turning to `Cc1cc(C)cc(OCC(=O)Nc2ccc3c(c2)OCCO3)c1`, the solubility (kinetic) was found to be 2 µg/mL (≈ 6.38 µM).
In the case of `CSc1sc(-c2ccnc(=S)[nH]2)c(-c2ccccc2)c1C#N` it was 8.2 µg/mL (≈ 24 µM); in that of `O=C(NCc1ccccc1)c1ccc[n+]([O-])c1`, over 34.2 µg/mL; in that of `O=C(NCc1ccccc1)c1c(O)c2ccccc2[nH]c1=O`, under 0.3 µg/mL.
In the case of `O=C(COc1ccc(Cl)cc1)Nc1ccc2oc(=O)ccc2c1` it was under 0.7 µg/mL; in that of `CN(C(=O)c1cccc(NC(=O)Cc2ccccc2)c1)c1ccccc1`, over 51.7 µg/mL; in that of `Clc1ccc(-c2csc(-c3ccncc3)n2)cc1`, 0.3 µg/mL (≈ 1.1 µM).
Under `CC(=O)c1c(-c2ccccc2)c2cc([N+](=O)[O-])ccc2[nH]c1=O` stands 16.3 µg/mL (≈ 52.9 µM); under `CCN1C(=O)c2ccc(C(=O)NCc3ccco3)cc2C1=O`, over 44.7 µg/mL.
For the compound `COc1ccccc1/C=C/C(=O)N1CCc2cc(OC)c(OC)cc2C1C` (stereo not given), the kinetic solubility was determined as 33 µg/mL (≈ 89.8 µM).
The compound `Cc1cc(=O)oc2cc(NC(=O)CC3(CC(=O)O)CCCC3)ccc12` returned a kinetic solubility of 50.2 µg/mL (≈ 146 µM). This solubility kinetic lies about 1.5-fold higher than the previous one.
Under `CCn1c(/C=C/c2ccccc2C)nc2ccccc2c1=O` stands 3.3 µg/mL (≈ 11.4 µM); under `CN(C)c1ccc(NC(=S)c2ccc3ccccc3n2)cc1`, under 0.2 µg/mL; under `CCCCOc1ccc(C(=O)NCC(=O)OCC(=O)c2c(N)n(C)c(=O)n(C)c2=O)cc1`, 10.9 µg/mL (≈ 24.4 µM).
Under `COC(=O)c1c(C)oc(C)c1S(=O)(=O)N(C)C1CCCCC1` stands 38.9 µg/mL (≈ 118 µM); under `CC(=C1C(=O)c2ccccc2C1=O)N1CCN(c2ccc(F)cc2)CC1`, over 52.6 µg/mL; under `O=c1[nH]c(SCc2c(Cl)cccc2Cl)nc2ccccc12`, under 0.4 µg/mL.
Under `O=C(/C=C/c1ccccc1[N+](=O)[O-])Nc1cccc(S(=O)(=O)NC2=NCCCCC2)c1` stands 14.4 µg/mL (≈ 32.5 µM).
`O=C(/C=C/c1ccc(F)cc1)N1CCc2ccccc2C1` displayed a kinetic solubility of 12.5 µg/mL (≈ 44.4 µM). This solubility kinetic and that of the compound before are within 1.5-fold of each other.
Under `COc1ccccc1OC(C)C(=O)N1CCc2ccccc21` (stereo not given) stands 3.3 µg/mL (≈ 11.1 µM); under `Cc1ccccc1-n1c2nc(=O)n(C)c(=O)c-2cc2ccccc21`, over 47.6 µg/mL; under `O=C(Nc1cccnc1)c1cccc(S(=O)(=O)N2CCCC2)c1`, over 49.7 µg/mL.
Regarding `O=C(COC(=O)c1cccc(F)c1)NCCC1=CCCCC1`, the solubility (kinetic) came out at 9.5 µg/mL (≈ 31.1 µM).
In the case of `Cc1ccccc1C1NC(=O)c2ccccc2O1` (stereo not given) it was 18.3 µg/mL (≈ 76.5 µM); in that of `O=C(O)c1c2c(nc3ccc(Cl)cc13)CCC2`, 32.1 µg/mL (≈ 130 µM); in that of `Cc1ccc(OCc2nc(-c3cccs3)no2)c([N+](=O)[O-])c1`, 0.9 µg/mL (≈ 2.84 µM).
On to `Cc1ccc(C(=O)NCN2CCN(c3ccc(F)cc3)CC2)cc1`, for which the kinetic solubility is over 49.1 µg/mL.
Under `O=C(COC(=O)CSc1ccc(Cl)cc1)Nc1ccccc1` stands over 50.4 µg/mL.
Regarding `O=C(Nc1ccccc1Cl)c1ccc(-c2ccccn2)s1`, the kinetic solubility amounted to 0.8 µg/mL (≈ 2.54 µM).
In the case of `COC(=O)c1sccc1NC(=O)NC1CCCCC1` it was 23.8 µg/mL (≈ 84.3 µM); in that of `CC(=O)NN1CCc2cc3ccc(C)cc3nc21`, over 36.2 µg/mL; in that of `CCc1nc2sc3c(c2c(=O)n1CCO)CCC3`, over 39.7 µg/mL.
In the case of `Cc1ccccc1C(=O)Nc1cccc(NC(=O)c2cccs2)c1` it was 17.7 µg/mL (≈ 52.6 µM).
For `Cc1cccc2c1NC(=O)C2=Nc1ccc(Cl)cc1`, the solubility (kinetic) was 4.7 µg/mL (≈ 17.4 µM).
Under `COc1ccc(NC(=O)C(=S)N2CCCC2)cc1` stands over 39.7 µg/mL; under `O=C(CN1C(=O)c2ccccc2S1(=O)=O)c1ccc(O)c(O)c1`, over 50 µg/mL.
`CC(C)c1ccc(N(CC(=O)N2CCN(Cc3ccccc3)CC2)S(C)(=O)=O)cc1`: the kinetic solubility came to 40.5 µg/mL (≈ 94.3 µM).
In the case of `CCCCc1ccc(NC(=O)Nc2cnccn2)cc1` it was 1.1 µg/mL (≈ 4.07 µM); in that of `Cc1ccc(C(=O)NCCCNC(=O)c2ccc(C)nc2)cc1`, over 46.7 µg/mL; in that of `CC(C)OCCCNC(=O)CN1C(=O)c2cccc3cccc1c23`, over 49 µg/mL.
Under `CN(C)C(CNC1CC(C)(C)NC(C)(C)C1)c1cccc(F)c1` (stereo not given) stands 34.7 µg/mL (≈ 108 µM); under `O=C(COC(=O)CN1C(=O)C2CCCCC2C1=O)Nc1ccc(F)c(F)c1F` (stereo not given), over 59.8 µg/mL.
In the case of `Cc1ccc2nc(-c3ccccn3)cc(C(=O)NC(C)C(C)(C)C)c2c1` (stereo not given) it was 3.2 µg/mL (≈ 9.21 µM).
Compound `CCCC(CCC)C(=O)Nc1cccc(-c2cn3c(n2)SCC3)c1` gave a kinetic solubility of 4 µg/mL (≈ 11.6 µM).
As for `COc1ccc(C(=O)Nc2ccc3ncccc3c2)cc1`, the kinetic solubility came to 12.1 µg/mL (≈ 43.5 µM).
The compound `O=C1CSC(=Nc2cccc(Cl)c2Cl)N1Cc1cccnc1` showed a kinetic solubility of 30.8 µg/mL (≈ 87.4 µM).
Under `COc1ccc(CCNC(=O)CCc2ccsc2)cc1OC` stands over 47.9 µg/mL.
Turning to `O=C1c2ccccc2-c2nc3ccccc3cc21`, the solubility (kinetic) was under 0.5 µg/mL.
The compound `OCCN(CCO)c1nc(N2CCCCC2)c2nc(N(CCO)CCO)nc(N3CCCCC3)c2n1` yielded a solubility (kinetic) of 10.7 µg/mL (≈ 21.2 µM).
Regarding `N#C/C(=C\c1ccccc1C(=O)O)c1nc2ccccc2[nH]1`, the solubility (kinetic) is over 43.4 µg/mL.
Regarding `COc1cccc(CNC(=O)CCCSc2ccccc2)c1`, the kinetic solubility worked out at 35 µg/mL (≈ 111 µM).
In the case of `CC1CCCC(NC(=O)CCC(=O)NCc2ccccc2)C1C` (stereo not given) it was 44.7 µg/mL (≈ 141 µM); in that of `Cc1ccc(C)c(NC(=O)CN(C)C(C)C(=O)N2CCCC2)c1` (stereo not given), 42.1 µg/mL (≈ 133 µM).
For `COCC[N+]1(C)CCCCC1.[I-]`, the kinetic solubility was over 42.8 µg/mL.
For `O=C(NCCCn1ccnc1)c1cc(-c2cccc(O)c2)on1`, the kinetic solubility stood at 39.6 µg/mL (≈ 127 µM).
Under `Cc1nccn1Cc1ccc(Cl)nc1` stands over 31.1 µg/mL; under `CCOC(=O)c1ccc(NC(=O)C2CC3CCC2C3)cc1` (stereo not given), 22.2 µg/mL (≈ 77.3 µM).
As to `CC(=O)C1=C(C)NC2=C(C(=O)c3ccccc32)C1c1ccccc1` (stereo not given), the kinetic solubility is 0.8 µg/mL (≈ 2.54 µM).
Under `Cc1cccc(OCCCCCN2CCOCC2)c1` stands 29.9 µg/mL (≈ 114 µM); under `COc1ccc(OCC(=O)NS(=O)(=O)c2ccccc2)cc1`, over 48.2 µg/mL; under `c1csc(-c2nc(N3CCOCC3)c3ccccc3n2)c1`, 2 µg/mL (≈ 6.73 µM).
Under `O=[N+]([O-])c1ccccc1CN1CC=C(c2ccc(F)cc2)CC1` stands 2.3 µg/mL (≈ 7.36 µM).
Take `COc1ccc2cc(C(C)C(=O)NC3CCC(O)CC3)ccc2c1` (stereo not given): the kinetic solubility was found to be 25.3 µg/mL (≈ 77.3 µM). Compared with the last compound, the solubility kinetic is about 11-fold higher.
Under `CC(C)OCCCNC1=C(Cl)C(=O)c2ccccc2C1=O` stands 35.5 µg/mL (≈ 115 µM); under `Cc1ccc(-c2cc(C(=O)N3CCCCCC3)no2)cc1`, 1.3 µg/mL (≈ 4.57 µM).
`CC(=O)N(c1nc(CCl)cs1)c1ccc(C)cc1C` came in with a kinetic solubility of over 44.2 µg/mL.
In the case of `O=C(Nc1ccc(Br)cn1)c1ccc(Cl)s1`, the kinetic solubility stood at 1.4 µg/mL (≈ 4.41 µM).
Under `COc1ccc(NC(=O)CCSCCc2ccccn2)cc1OC` stands 49.1 µg/mL (≈ 142 µM).
Regarding `Cc1ccc(NC(=O)CCNC(=O)c2ccccc2)cc1F`, the kinetic solubility came to 2.9 µg/mL (≈ 9.66 µM).
Under `CC(C)(C)c1ccc(S(=O)(=O)N2CCN(CC(O)CN3CCOCC3)CC2)cc1` (stereo not given) stands over 63.8 µg/mL.
